Consider three compounds from patent US20250186379A1, “METHODS AND AGENTS FOR DECREASING INSULIN RESISTANCE” (Whitehead Institute for Biomedical Research, priority 2021, published 2025).

“Also recorded” adds a separate entry of the source.

The test system of assay [1] is reactive oxygen species (ROS). Kind of assay: Quantification of ROS using a ROS-sensitive dye in HepG2 cells. In kind it is cell-based, human. The procedure:
Cells expressing endogenous IR tagged with GFP were treated with ROS dye (Abcam, ab186029) following the manufacturer's instructions. […] Cells were incubated at 37° C. with 5% CO2 in a humidified incubator for 30 min. Cells were imaged at 37° C. using the LSM880 Microscope with Airyscan detector with 63×objective and Zen Black software (ZEISS) at the W.M. Keck Microscopy Facility, MIT. Images were then processed using Fiji/ImageJ v2.1.0/153c. Quantification of the ROS dye fluorescence intensity per cell was performed using Fiji. Using the polygon selection tool on Fiji/ImageJ v2.1.0/153c, a polygon was drawn around a cell outline, which was identified by looking at the IR-GFP channel. The average ROS dye fluorescence intensity in the polygon (=in the cell) was determined using the measure tool on Fiji/ImageJ v2.1.0/153c. […] Cells were incubated at 37° C. with 5% CO2 in a humidified incubator for 30 minutes. Cells were imaged at 37° C. using the LSM880 Microscope with Airyscan detector with 63× objective and Zen Black software (ZEISS) at the W.M. Keck Microscopy Facility, MIT. Images were then processed using Fiji/ImageJ v2.1.0/153c. Quantification of the ROS dye fluorescence intensity per cell was performed using Fiji. […] The average ROS dye fluorescence intensity in the polygon (=in the cell) was determined using the measure tool on Fiji/ImageJ v2.1.0/153c.

Assay [2] deals with phosphorylated IRS1 (pIRS1). Kind of assay: Imaging of phosphorylated IRS1 in IR condensates in HepG2 cells. In kind it is cell-based, human. Here is the method: HepG2 cells, human liver spheroids, human primary adipocytes and human tissue liver sections were fixed in 4% PFA (VWR, BT140770-10X10) in PBS (Life Technologies, AM9625) for 10 minutes at room temperature. Cells were washed three times for 5 minutes in PBS, permeabilized with 0.5% TritonX100 (Sigma Aldrich, X100) in PBS, washed three times for 5 minutes in PBS, and then blocked with 4% IgG-free BSA (VWR, 102643-516) for 15-60 minutes at room temperature. Afterwards, the cells were incubated with 1:500 or 1:1000 primary antibody (specific antibodies listed below) in 4% IgG-free BSA in PBS at 4° C. overnight. […]
To quantify pIRS1 fluorescent signal in IR puncta/condensates manually, Airyscan images were opened on Fiji as composite images. A circle or an oval was drawn around IR puncta using the oval selection tool and the average fluorescence intensity of pIRS1 in the circle or oval (=in the puncta/condensates) was determined using the measure tool on Fiji.
To quantify pIRS1 fluorescent signal in IR puncta/condensates computationally using Fiji, 3D object counter tool was used. […] 3D object counter tool then determined the intensity pIRS1 channel in the identified IR puncta. pIRS1 signal intensity was then background subtracted by a threshold determined by averaging the background intensity in a rectangular region outside of the cells.

For another assay, the system named is IR puncta. Nature of the assay: Immunofluorescence for IR in human primary adipocytes. The class given is cell-based. Conditions: for IR incorporation into puncta: 3 nM insulin 5 minutes. The procedure: Primary pre-adipocytes from (ATCC, PCS-210-010) were cultured in Fibroblast Growth Kit-Low Serum (ATCC PCS-201-041), as per manufacturer's instructions. Cells for experiments were dissociated and plated at 18,000 cells/cm2. Two days later pre-adipocytes were differentiated in adipocyte differentiation media (ATCC PCS-500-050), as per manufacturer's instructions. Briefly, cells were washed and medium was replaced with adipocyte differentiation initiation medium. After 48 hours, half the medium was replaced. At day 4, medium was changed to adipocyte differentiation maintenance medium, and replaced every three days. At day 12, cells were rinsed and incubated in DMEM (Thermo Fisher, 11885084) with 0.1 or 3 nM of insulin for 5 days, replacing medium every other day. In the last 24 hours, 12.5 μM metformin was added. On day 17, cells were prepared for the assays by rinsing, and 30 minutes of washing. Afterwards, for imaging, cells were exposed to 3 nM insulin for 5 minutes, rinsed with PBS and fixed in 4% PFA for 15 minutes at room temperature. For pAKT ELISAs cells were exposed to 3 nM insulin for 15 minutes and harvested in cell lysis buffer (Cell Signaling Technology, #9803) with phosphatase inhibitor (Thermo Fisher Scientific, 78442).
For adipocytes, following differentiation, cells were cultured with EMEM for 2 days and with EMEM containing either physiological (0.1 nM) or pathological (3 nM) concentrations of insulin for 2 days. Cells were then cultured with EMEM containing either physiological (0.1 nM) or pathological (3 nM) of insulin or with pathological (3 nM) concentrations of insulin and 12.5 μM of metformin for 1 day. Cells were then washed with EMEM and acutely stimulated with or without 3 nM insulin for 5 minutes prior to cell collection for immunofluorescence or ELISA.
HepG2 cells, human liver spheroids, human primary adipocytes and human tissue liver sections were fixed in 4% PFA (VWR, BT140770-10X10) in PBS (Life Technologies, AM9625) for 10 minutes at room temperature. […]

With `CN(C)C(=N)N=C(N)N` [metformin, reference compound], in assay [1] (insulin resistant HepG2 cells, 12.5 μM metformin), the “ROS levels (ROS-sensitive dye)” value is on record as “reduced ROS levels to those found in insulin sensitive cells; also recorded: reduced ROS levels to those found in insulin-sensitive cells”. For the same compound, the “levels of phosphorylated IRS1 in IR-containing condensates” value in assay [2] (insulin-resistant cells + metformin, 3 nM insulin 5 min (FIG. 18C)) is listed as “partially rescued”. Besides, in the assay with IR puncta (insulin-resistant adipocytes, 12.5 μM metformin 1 day, 3 nM insulin 5 min), the “IR incorporation into puncta (IR signal)” value was “reversed”.

For the compound TNFα, the “production of ROS” value in assay [1] (HepG2 cells (FIG. 27C), also refs 19,77-79) is given as “excessive production of ROS”.

Regarding “insulin: insulin (Sigma Aldrich, I9278-5ML) used for acute stimulation and chronic physiological or pathological exposure”, the “intensity of pIRS1 at IR condensates” value in assay [2] (insulin-sensitive HepG2 cells, 3 nM insulin 5 min (FIG. 17F)) is “increased”. Also, the “IR incorporation into puncta” value with IR puncta (insulin-resistant adipocytes) is “less able to promote further IR incorporation into puncta”; in the assay with IR puncta (insulin-sensitive adipocytes), “promoted further IR incorporation into these puncta”.
